# Measurements taken from patent US20240391965A1, “STAPLED ANTIMICROBIAL PEPTIDES (STAMPS) AND USES THEREOF” (Lytica Therapeutics, Inc., priority 2021, published 2024).
# Starred links: 1 amine or outer side, 2 acyl side, 3 side chain; linkers in the order of their positions; H or OH if unused. Positions of bridges follow the written chain, without caps; N, C: chain ends. Residues, ends and D or L forms follow the SMILES beside them. 2,2'Bipyridine(5,5'-diCH2) = c1cc(-c2ccc(C[*:2])cn2)ncc1C[*:1]; Naphthalene(2,6-diCH2) = c1cc2cc(C[*:2])ccc2cc1C[*:1]; mXylylene = c1cc(C[*:1])cc(C[*:2])c1; X1 = C(=CC[*:2])C[*:1]
# Columns and labels:
# [1] = test system: Acinetobacter baumannii (A. baumannii); assay type: cell-based; settings: microbroth dilution, 20-24 hours at 37° C.
# Procedure: (§1) Antimicrobial Activity Assay: The following microbroth dilution protocol was adapted from CLSI to determine the minimum inhibitory concentration (MIC) of StAMPs. Briefly, Mueller-Hinton broth (MHB) or cation-adjusted Mueller-Hinton broth (MHB II) was prepared and autoclaved. Then, a colony of bacterial cells was picked and grown overnight in broth at 37° C. and then diluted and allowed to grow again for 3-4 hours. Serial dilutions of peptide stocks in water (10 μl) were prepared using clear round-bottom polypropylene 96-well plates. Then 90 μl of bacteria in broth was added to give a final inoculum of 5×10^5 CFU/ml. The plates were then covered with porous tape to reduce evaporation and incubated for 20-24 hours at 37° C. The MIC was the minimum peptide concentration at which no visible bacterial growth was observed.
# [2] = test system: Escherichia coli (E. coli); assay type: cell-based; settings: microbroth dilution, 20-24 hours at 37° C.
# Procedure: as §1
# [3] = test system: Klebsiella pneumoniae (K. pneumoniae); assay type: cell-based; settings: microbroth dilution, 20-24 hours at 37° C.
# Procedure: as §1
# [4] = test system: Pseudomonas aeruginosa (P. aeruginosa); assay type: cell-based; settings: microbroth dilution, 20-24 hours at 37° C.
# Procedure: as §1
# [5] = test system: Staphylococcus aureus (S. aureus); assay type: cell-based; settings: microbroth dilution, 20-24 hours at 37° C.
# Procedure: as §1
# [6] = 90 minute cytotoxicity assay (LDH release), renal toxicity; assay type: cell-based; settings: 90 minutes of incubation, LDH release; read-out: Inhibitory Concentration at 50% Cytotoxicity (IC50) Human Renal Proximal Tubule Epithelial Cells (RPTEC)
# Outline: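 RPTEC plated overnight, given fresh medium, then exposed to serial peptide dilutions or vehicle for 90 min at 37° C. Medium LDH measured by 10 min reagent incubation and absorbance at 490 nm.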
# [7] = 48 hours cytotoxicity assay (CellTiter-Glo), liver toxicity; assay type: cell-based, human; settings: 48 hours of incubation, CellTiter-Glo; read-out: Inhibitory Concentration at 50% Cytotoxicity (IC50) Human Liver Cells (HepG2)
# Outline: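 HepG2 cells in EMEM with 10% FBS, allowed to attach 4 h, then exposed to serially diluted StAMPs or vehicle for 48 h at 37 °C. Viability read by CellTiter-Glo luminescence.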
SMILES,Minimum Inhibitory Concentration (MIC) A. baumannii [1] [µg/mL],Minimum Inhibitory Concentration (MIC) E. coli [2] [µg/mL],Minimum Inhibitory Concentration (MIC) K. pneumoniae [3] [µg/mL],Minimum Inhibitory Concentration (MIC) P. aeruginosa [4] [µg/mL],Minimum Inhibitory Concentration (MIC) S. aureus [5] [µg/mL],IC50 [6] [µg/mL],IC50 [7] [µg/mL]
CC[C@H](C)[C@H](NC(=O)CN)C(=O)N[C@H]1CSCC=CCSC[C@@H](C(=O)NCC(=O)N[C@@H](CCCCN)C(=O)N[C@@H](CCCCN)C(=O)N[C@H](C(=O)N[C@@H](CCCCN)C(=O)N[C@@H](CC(N)=O)C(=O)N[C@@H](CC(C)C)C(=O)N[C@@H](CC(C)C)C(=O)N[C@H](C(=O)N[C@@H](CO)C(=O)NCC(=O)N[C@@H](CC(C)C)C(=O)N[C@@H](CCCCN)C(=O)NCC(N)=O)[C@@H](C)CC)[C@@H](C)CC)NC(=O)[C@H](CC(C)C)NC(=O)[C@H](CCCCN)NC(=O)[C@H](CO)NC1=O [compound 1] (H-GICSKLCGKKIKNLLISGLKG-NH2; linker 3-7 via X1),8,8,64,32,>64,> 200,> 200
CC[C@H](C)[C@H](NC(=O)CN)C(=O)N[C@@H](Cc1ccccc1)C(=O)N[C@@H](CO)C(=O)N[C@@H](CCCCN)C(=O)N[C@@H](CC(C)C)C(=O)N[C@H]1CSCc2cccc(c2)CSC[C@@H](C(=O)N[C@@H](CCCCN)C(=O)N[C@@H](CC(N)=O)C(=O)N[C@@H](CC(C)C)C(=O)N[C@@H](CC(C)C)C(=O)N[C@H](C(=O)N[C@@H](CO)C(=O)NCC(=O)N[C@@H](CC(C)C)C(=O)N[C@@H](CCCCN)C(=O)NCC(N)=O)[C@@H](C)CC)NC(=O)[C@H](CCCCN)NC(=O)[C@H](CCCCN)NC(=O)CNC1=O [compound 2] (H-GIFSKLCGKKCKNLLISGLKG-NH2; linker 7-11 via mXylylene),4,2,16,8,>64,101,97
"CC[C@H](C)[C@H](NC(=O)CN)C(=O)N[C@@H](Cc1ccccc1)C(=O)N[C@@H](CO)C(=O)N[C@@H](CCCCN)C(=O)N[C@@H](CC(C)C)C(=O)N[C@@H](C)C(=O)NCC(=O)N[C@@H](CCCCN)C(=O)N[C@H]1CSCc2ccc(nc2)-c2ccc(cn2)CSC[C@@H](C(=O)NCC(=O)N[C@@H](CC(C)C)C(=O)N[C@@H](CCCCN)C(=O)NCC(N)=O)NC(=O)[C@H]([C@@H](C)CC)NC(=O)[C@H](CC(C)C)NC(=O)[C@H](CC(C)C)NC(=O)[C@H](CC(N)=O)NC(=O)[C@H](CCCCN)NC(=O)[C@H]([C@@H](C)CC)NC1=O [compound 72] (H-GIFSKLAGKCIKNLLICGLKG-NH2; linker 10-17 via 2,2'Bipyridine(5,5'-diCH2); N-terminus assumed)",4,4,8,32,4,19,
"CC[C@H](C)[C@H](NC(=O)CN)C(=O)N[C@@H](Cc1ccccc1)C(=O)N[C@@H](CO)C(=O)N[C@@H](CCCCN)C(=O)N[C@@H](CC(C)C)C(=O)N[C@@H](C)C(=O)NCC(=O)N[C@@H](CCCCN)C(=O)N[C@H]1CSCc2ccc3cc(ccc3c2)CSC[C@@H](C(=O)NCC(=O)N[C@@H](CC(C)C)C(=O)N[C@@H](CCCCN)C(=O)NCC(N)=O)NC(=O)[C@H]([C@@H](C)CC)NC(=O)[C@H](CC(C)C)NC(=O)[C@H](CC(C)C)NC(=O)[C@H](CC(N)=O)NC(=O)[C@H](CCCCN)NC(=O)[C@H]([C@@H](C)CC)NC1=O [compound 73] (H-GIFSKLAGKCIKNLLICGLKG-NH2; linker 10-17 via Naphthalene(2,6-diCH2); N-terminus assumed)",4,8,8,64,4,9,
"CC[C@H](C)[C@H](NC(=O)CN)C(=O)N[C@@H](Cc1ccccc1)C(=O)N[C@@H](CO)C(=O)N[C@@H](CCCCN)C(=O)N[C@@H](CC(C)C)C(=O)N[C@@H](C)C(=O)NCC(=O)N[C@@H](CCCCN)C(=O)N[C@@H](CCCCN)C(=O)N[C@H](C(=O)N[C@@H](CCCCN)C(=O)N[C@H]1CSCc2ccc(nc2)-c2ccc(cn2)CSC[C@@H](C(=O)NCC(N)=O)NC(=O)[C@H](CC(C)C)NC(=O)CNC(=O)[C@H](CO)NC(=O)[C@H]([C@@H](C)CC)NC(=O)[C@H](CC(C)C)NC(=O)[C@H](CC(C)C)NC1=O)[C@@H](C)CC [compound 81] (H-GIFSKLAGKKIKCLLISGLCG-NH2; linker 13-20 via 2,2'Bipyridine(5,5'-diCH2); N-terminus assumed)",4,4,8,32,>64,,57
"CC[C@H](C)[C@H](NC(=O)CN)C(=O)N[C@@H](Cc1ccccc1)C(=O)N[C@@H](CO)C(=O)N[C@@H](CCCCN)C(=O)N[C@@H](CC(C)C)C(=O)N[C@@H](C)C(=O)NCC(=O)N[C@@H](CCCCN)C(=O)N[C@@H](CCCCN)C(=O)N[C@H](C(=O)N[C@@H](CCCCN)C(=O)N[C@H]1CSCc2ccc3cc(ccc3c2)CSC[C@@H](C(=O)NCC(N)=O)NC(=O)[C@H](CC(C)C)NC(=O)CNC(=O)[C@H](CO)NC(=O)[C@H]([C@@H](C)CC)NC(=O)[C@H](CC(C)C)NC(=O)[C@H](CC(C)C)NC1=O)[C@@H](C)CC [compound 82] (H-GIFSKLAGKKIKCLLISGLCG-NH2; linker 13-20 via Naphthalene(2,6-diCH2); N-terminus assumed)",4,4,8,32,>64,,23
"CC[C@H](C)[C@H](NC(=O)CN)C(=O)N[C@@H](Cc1ccccc1)C(=O)N[C@@H](CO)C(=O)N[C@@H](CCCCN)C(=O)N[C@@H](CC(C)C)C(=O)N[C@@H](C)C(=O)NCC(=O)N[C@@H](CCCCN)C(=O)N[C@@H](CCCCN)C(=O)N[C@H](C(=O)N[C@@H](CCCCN)C(=O)N[C@@H](CC(N)=O)C(=O)N[C@H]1CSCc2ccc(nc2)-c2ccc(cn2)CSC[C@@H](C(N)=O)NC(=O)[C@H](CCCCN)NC(=O)[C@H](CC(C)C)NC(=O)CNC(=O)[C@H](CO)NC(=O)[C@H]([C@@H](C)CC)NC(=O)[C@H](CC(C)C)NC1=O)[C@@H](C)CC [compound 84] (H-GIFSKLAGKKIKNCLISGLKC-NH2; linker 14-21 via 2,2'Bipyridine(5,5'-diCH2); N-terminus assumed)",8,4,16,32,>64,,105
"CC[C@H](C)[C@H](NC(=O)CN)C(=O)N[C@@H](Cc1ccccc1)C(=O)N[C@@H](CO)C(=O)N[C@@H](CCCCN)C(=O)N[C@@H](CC(C)C)C(=O)N[C@@H](C)C(=O)NCC(=O)N[C@@H](CCCCN)C(=O)N[C@@H](CCCCN)C(=O)N[C@H](C(=O)N[C@@H](CCCCN)C(=O)N[C@@H](CC(N)=O)C(=O)N[C@H]1CSCc2ccc3cc(ccc3c2)CSC[C@@H](C(N)=O)NC(=O)[C@H](CCCCN)NC(=O)[C@H](CC(C)C)NC(=O)CNC(=O)[C@H](CO)NC(=O)[C@H]([C@@H](C)CC)NC(=O)[C@H](CC(C)C)NC1=O)[C@@H](C)CC [compound 85] (H-GIFSKLAGKKIKNCLISGLKC-NH2; linker 14-21 via Naphthalene(2,6-diCH2); N-terminus assumed)",4,4,32,16,64,,87
CC[C@H](C)[C@H](NC(=O)CN)C(=O)N[C@@H](Cc1ccccc1)C(=O)N[C@@H](CO)C(=O)N[C@@H](CCCCN)C(=O)N[C@@H](CC(C)C)C(=O)N[C@H]1CSCC=CCSC[C@@H](C(=O)N[C@@H](CCCCN)C(=O)N[C@@H](CC(N)=O)C(=O)N[C@@H](CC(C)C)C(=O)N[C@@H](CC(C)C)C(=O)N[C@H](C(=O)N[C@@H](CO)C(=O)NCC(=O)N[C@@H](CC(C)C)C(=O)N[C@@H](CCCCN)C(=O)NCC(=O)N[C@@H](C)C(=O)N[C@@H](CCCCN)C(=O)O)[C@@H](C)CC)NC(=O)[C@H](CCCCN)NC(=O)[C@H](CCCCN)NC(=O)CNC1=O [compound 100] (H-GIFSKLCGKKCKNLLISGLKGAK-OH; linker 7-11 via X1),16,32,>64,>64,>64,,> 200
